US10377753B2, “Substituted 4-azaindoles and their use as GluN2B receptor modulators” (Janssen Pharmaceutica NV, priority 2015, dated 2019)
Where a name gives a salt, the structure may show the parent alone.

Each compound was assayed against cloned human NR1/NR2B ion channels (Homo sapiens (Human), UniProt Q05586+Q13224) (assay: HNR2BC: effects of test articles on cloned human NR1/NR2B ion channels expressed in mammalian cells (FLIPR calcium flux)). Conditions: cloned human NR1/NR2B, Table 5.
cloned human NR1/NR2B ion channels, sequence (Q13224 27-1484, other chains not shown): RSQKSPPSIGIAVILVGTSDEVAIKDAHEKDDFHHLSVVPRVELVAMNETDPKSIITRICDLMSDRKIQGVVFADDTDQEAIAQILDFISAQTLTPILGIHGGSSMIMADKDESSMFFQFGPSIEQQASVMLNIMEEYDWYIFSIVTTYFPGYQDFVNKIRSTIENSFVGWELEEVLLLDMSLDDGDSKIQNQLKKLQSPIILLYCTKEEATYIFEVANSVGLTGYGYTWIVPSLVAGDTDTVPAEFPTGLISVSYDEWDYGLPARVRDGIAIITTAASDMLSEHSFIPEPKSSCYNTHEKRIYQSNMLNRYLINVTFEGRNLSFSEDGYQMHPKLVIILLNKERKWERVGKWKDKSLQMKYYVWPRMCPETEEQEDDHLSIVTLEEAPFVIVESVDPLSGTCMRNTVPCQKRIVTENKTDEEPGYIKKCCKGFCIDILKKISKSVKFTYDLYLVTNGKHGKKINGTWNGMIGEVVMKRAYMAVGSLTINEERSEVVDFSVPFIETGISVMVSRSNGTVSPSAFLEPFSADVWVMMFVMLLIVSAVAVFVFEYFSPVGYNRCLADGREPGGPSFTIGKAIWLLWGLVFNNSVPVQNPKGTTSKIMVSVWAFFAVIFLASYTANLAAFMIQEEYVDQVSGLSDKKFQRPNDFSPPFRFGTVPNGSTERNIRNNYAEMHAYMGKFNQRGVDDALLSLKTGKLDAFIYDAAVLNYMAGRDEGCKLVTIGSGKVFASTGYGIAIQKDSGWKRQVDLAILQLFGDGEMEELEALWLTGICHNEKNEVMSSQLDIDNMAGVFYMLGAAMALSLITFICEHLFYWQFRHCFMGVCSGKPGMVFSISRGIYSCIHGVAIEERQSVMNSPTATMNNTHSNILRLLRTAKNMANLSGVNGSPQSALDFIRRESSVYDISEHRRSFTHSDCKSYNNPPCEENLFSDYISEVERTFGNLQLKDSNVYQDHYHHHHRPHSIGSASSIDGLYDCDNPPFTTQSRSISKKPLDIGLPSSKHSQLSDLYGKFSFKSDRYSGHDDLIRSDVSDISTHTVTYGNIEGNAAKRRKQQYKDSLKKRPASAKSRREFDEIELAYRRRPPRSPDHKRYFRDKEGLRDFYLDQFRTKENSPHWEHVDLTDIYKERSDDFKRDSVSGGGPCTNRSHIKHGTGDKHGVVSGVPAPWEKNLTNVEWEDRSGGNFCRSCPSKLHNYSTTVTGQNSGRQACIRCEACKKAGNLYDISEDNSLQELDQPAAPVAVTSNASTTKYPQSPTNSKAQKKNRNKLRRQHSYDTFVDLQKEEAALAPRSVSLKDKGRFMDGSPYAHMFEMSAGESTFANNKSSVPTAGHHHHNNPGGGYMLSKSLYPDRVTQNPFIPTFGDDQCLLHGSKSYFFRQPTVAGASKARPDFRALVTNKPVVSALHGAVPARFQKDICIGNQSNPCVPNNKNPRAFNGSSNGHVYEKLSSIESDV
Format: cell-based
Outline: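 In a stable Tet-On-induced cell line expressing human GluN1/GluN2B, Calcium 5-loaded cells were preincubated 5 min with compound, then stimulated 5 min with glutamate at ~EC80 plus 10 μM glycine, in pH 7.4 HEPES buffer. FLIPR calcium fluorescence was normalized to control wells.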
Work on `Cc1cc(-c2cnc3c(F)cn(CC(=O)N4CCCC4)c3c2)ccc1F` [Example 313, 2-[3-Fluoro-6-(4-fluoro-3-methyl-phenyl)pyrrolo[3,2-b]pyridin-1-yl]-1-pyrrolidin-1-yl-ethanone] yielded an IC50 of 20 nM.
`O=C(Cn1cc(F)c2ncc(-c3ccc(F)cc3)cc21)N1CCCC1` [Example 314, 2-[3-Fluoro-6-(4-fluorophenyl)pyrrolo[3,2-b]pyridin-1-yl]-1-pyrrolidin-1-yl-ethanone] showed an IC50 of 63.1 nM.
With `O=C(Cn1cc(F)c2ncc(-c3cc(F)c(F)c(F)c3)cc21)N1CCCC1` [Example 315, 2-[3-Fluoro-6-(3,4,5-trifluorophenyl)pyrrolo[3,2-b]pyridin-1-yl]-1-pyrrolidin-1-yl-ethanone] the IC50 was 79.4 nM.
With `Cc1cc(-c2cnc3c(F)cn(CC(=O)C4CC4)c3c2)ccc1F` [Example 316, 1-Cyclopropyl-2-[3-fluoro-6-(4-fluoro-3-methyl-phenyl)pyrrolo[3,2-b]pyridin-1-yl]ethanone] the IC50 was 39.8 nM.
In the case of `Cc1csc(-c2cnc3c(F)cn(CC(=O)C4CC4)c3c2)c1` [Example 317, 1-Cyclopropyl-2-[3-fluoro-6-(4-methyl-2-thienyl)pyrrolo[3,2-b]pyridin-1-yl]ethanone], the IC50 is reported as 39.8 nM.
With `O=C(Cn1cc(F)c2ncc(-c3ccc(Cl)s3)cc21)C1CC1` [Example 318, 2-[6-(5-Chloro-2-thienyl)-3-fluoro-pyrrolo[3,2-b]pyridin-1-yl]-1-cyclopropyl-ethanone] the IC50 was 20 nM.
Work on `O=C(Cn1cc(F)c2ncc(-c3ccc(F)cc3)cc21)C1CC1` [Example 319, 1-Cyclopropyl-2-[3-fluoro-6-(4-fluorophenyl)pyrrolo[3,2-b]pyridin-1-yl]ethanone] yielded an IC50 of 20 nM.
`O=C(Cn1cc(F)c2ncc(-c3cc(F)c(F)c(F)c3)cc21)C1CC1` [Example 320, 1-Cyclopropyl-2-[3-fluoro-6-(3,4,5-trifluorophenyl)pyrrolo[3,2-b]pyridin-1-yl]ethanone] gave an IC50 of 31.6 nM.
`O=C(Cn1cc(F)c2ncc(-c3cccc(C(F)F)c3)cc21)C1CC1` [Example 321, 1-Cyclopropyl-2-[6-[3-(difluoromethyl)phenyl]-3-fluoro-pyrrolo[3,2-b]pyridin-1-yl]ethanone] showed an IC50 of 20 nM.
`Cc1csc(-c2cnc3c(F)cn(CC(=O)N4CCC4)c3c2)c1` [Example 322, 1-(Azetidin-1-yl)-2-[3-fluoro-6-(4-methyl-2-thienyl)pyrrolo[3,2-b]pyridin-1-yl]ethanone] was tested, and the IC50 was 20 nM.
`O=C(Cn1cc(F)c2ncc(-c3cccc(C(F)F)c3)cc21)N1CCC1` [Example 323, 1-(Azetidin-1-yl)-2-[6-[3-(difluoromethyl)phenyl]-3-fluoro-pyrrolo[3,2-b]pyridin-1-yl]ethanone] showed an IC50 of 100 nM.
`Cc1cc(-c2cnc3c(F)cn(CC(=O)C(C)C)c3c2)ccc1F` [Example 324, 1-[3-Fluoro-6-(4-fluoro-3-methyl-phenyl)pyrrolo[3,2-b]pyridin-1-yl]-3-methyl-butan-2-one] gave an IC50 of 100 nM.
With `CCc1cccc(-c2cnc3c(F)cn(CC(=O)C(C)C)c3c2)c1` [Example 325, 1-[6-(3-Ethylphenyl)-3-fluoro-pyrrolo[3,2-b]pyridin-1-yl]-3-methyl-butan-2-one] the IC50 was 200 nM.
Compound `CC(C)C(=O)Cn1cc(F)c2ncc(-c3ccc(F)c(F)c3)cc21` [Example 326, 1-[6-(3,4-Difluorophenyl)-3-fluoro-pyrrolo[3,2-b]pyridin-1-yl]-3-methyl-butan-2-one] has an IC50 of 200 nM.
`CC(C)C(=O)Cn1cc(F)c2ncc(-c3cccc(F)c3)cc21` [Example 327, 1-[3-Fluoro-6-(3-fluorophenyl)pyrrolo[3,2-b]pyridin-1-yl]-3-methyl-butan-2-one] gave an IC50 of 63.1 nM.
For `CC(C)C(=O)Cn1cc(F)c2ncc(-c3cccc(C(F)(F)F)c3)cc21` [Example 328, 1-[3-Fluoro-6-[3-(trifluoromethyl)phenyl]pyrrolo[3,2-b]pyridin-1-yl]-3-methyl-butan-2-one], the IC50 was 63.1 nM.
In the case of `Cc1cccc(-c2cnc3c(F)cn(CC(=O)C(C)C)c3c2)c1` [Example 329, 1-[3-Fluoro-6-(m-tolyl)pyrrolo[3,2-b]pyridin-1-yl]-3-methyl-butan-2-one], the IC50 is reported as 501 nM.
`CSCn1ccc2ncc(-c3ccc(F)c(C)c3)cc21` [Example 330, 6-(4-Fluoro-3-methyl-phenyl)-1-(methylsulfanylmethyl)pyrrolo[3,2-b]pyridine] gave an IC50 of 63.1 nM.
With `Cc1cc(-c2cnc3ccn(CS(C)(=O)=O)c3c2)ccc1F` [Example 332, 6-(4-Fluoro-3-methyl-phenyl)-1-(methylsulfonylmethyl)pyrrolo[3,2-b]pyridine] the IC50 was 1580 nM.
Work on `CCC(=O)Cn1cc(F)c2ncc(-c3ccc(F)cc3)cc21` [Example 333, 1-[3-Fluoro-6-(4-fluorophenyl)pyrrolo[3,2-b]pyridin-1-yl]butan-2-one] yielded an IC50 of 6310 nM.
Work on `CCC(=O)Cn1cc(F)c2ncc(-c3cc(F)c(F)c(F)c3)cc21` [Example 334, 1-[3-Fluoro-6-(3,4,5-trifluorophenyl)pyrrolo[3,2-b]pyridin-1-yl]butan-2-one] yielded an IC50 of 25.1 nM.
With `CCC(=O)Cn1cc(F)c2ncc(-c3ccc(F)c(C)c3)cc21` [Example 335, 1-[3-Fluoro-6-(4-fluoro-3-methyl-phenyl)pyrrolo[3,2-b]pyridin-1-yl]butan-2-one] the IC50 was 12.6 nM.
Compound `CCC(=O)Cn1cc(F)c2ncc(-c3ccc(F)c(F)c3)cc21` [Example 336, 1-[6-(3,4-Difluorophenyl)-3-fluoro-pyrrolo[3,2-b]pyridin-1-yl]butan-2-one] has an IC50 of 20 nM.
`CCC(=O)Cn1cc(F)c2ncc(-c3cccc(C(F)F)c3)cc21` [Example 337, 1-[6-[3-(Difluoromethyl)phenyl]-3-fluoro-pyrrolo[3,2-b]pyridin-1-yl]butan-2-one] gave an IC50 of 15.8 nM.
With `CCC(=O)Cn1cc(F)c2ncc(-c3ccc(Cl)s3)cc21` [Example 338, 1-[6-(5-Chloro-2-thienyl)-3-fluoro-pyrrolo[3,2-b]pyridin-1-yl]butan-2-one] the IC50 was 15.8 nM.
With `CCC(=O)Cn1cc(F)c2ncc(-c3cc(C)cs3)cc21` [Example 339, 1-[3-Fluoro-6-(4-methyl-2-thienyl)pyrrolo[3,2-b]pyridin-1-yl]butan-2-one] the IC50 was 12.6 nM.
Compound `CC(=O)CCn1ccc2ncc(-c3ccc(F)cc3)cc21` [Example 340, 4-[6-(4-Fluorophenyl)pyrrolo[3,2-b]pyridin-1-yl]butan-2-one] has a pIC50 of 7.9.
`CC(C)C(=O)Cn1cc(F)c2ncc(-c3ccc(F)cc3)cc21` [Example 341, 1-[3-Fluoro-6-(4-fluorophenyl)pyrrolo[3,2-b]pyridin-1-yl]-3-methyl-butan-2-one] showed an IC50 of 1000 nM.
`CC(C)C(=O)Cn1cc(F)c2ncc(-c3cccc(C(F)F)c3)cc21` [Example 342, 1-[6-[3-(Difluoromethyl)phenyl]-3-fluoro-pyrrolo[3,2-b]pyridin-1-yl]-3-methyl-butan-2-one] was tested, and the IC50 was 50.1 nM.
`Cc1csc(-c2cnc3c(F)cn(CC(=O)C(C)C)c3c2)c1` [Example 343, 1-[3-Fluoro-6-(4-methyl-2-thienyl)pyrrolo[3,2-b]pyridin-1-yl]-3-methyl-butan-2-one] was tested, and the IC50 was 63.1 nM.
`CC(C)C(=O)Cn1cc(F)c2ncc(-c3cc(F)c(F)c(F)c3)cc21` [Example 344, 1-[3-Fluoro-6-(3,4,5-trifluorophenyl)pyrrolo[3,2-b]pyridin-1-yl]-3-methyl-butan-2-one] gave an IC50 of 50.1 nM.
For `CC(C)C(=O)Cn1cc(F)c2ncc(-c3ccc(Cl)s3)cc21` [Example 345, 1-[6-(5-Chloro-2-thienyl)-3-fluoro-pyrrolo[3,2-b]pyridin-1-yl]-3-methyl-butan-2-one], the IC50 was 31.6 nM.
`Cc1cc(-c2cnc3ccn(CC(=O)N4CCOCC4)c3c2)ccc1F` [Example 346, 2-[6-(4-Fluoro-3-methyl-phenyl)pyrrolo[3,2-b]pyridin-1-yl]-1-morpholino-ethanone] showed an IC50 of 39.8 nM.
Compound `Cc1cc(-c2cnc3ccn(CC(=O)NC4CC4)c3c2)ccc1F` [Example 348, N-Cyclopropyl-2-[6-(4-fluoro-3-methyl-phenyl)pyrrolo[3,2-b]pyridin-1-yl]acetamide] has an IC50 of 31.6 nM.
`O=C(Cn1ccc2ncc(-c3cc(F)cc(F)c3)cc21)NC1CC1` [Example 350, N-Cyclopropyl-2-[6-(3,5-difluorophenyl)pyrrolo[3,2-b]pyridin-1-yl]acetamide trifluoroacetate salt] gave an IC50 of 15.8 nM.
Work on `O=C(Cn1ccc2ncc(-c3cccc(C(F)(F)F)c3F)cc21)NC1CC1` [Example 352, N-Cyclopropyl-2-[6-[2-fluoro-3-(trifluoromethyl)phenyl]pyrrolo[3,2-b]pyridin-1-yl]acetamide trifluoroacetate salt] yielded an IC50 of 39.8 nM.
Work on `O=C(Cn1ccc2ncc(-c3ccc(F)cc3)cc21)N1CCC1` [Example 353, 1-(Azetidin-1-yl)-2-[6-(4-fluorophenyl)pyrrolo[3,2-b]pyridin-1-yl]ethanone] yielded an IC50 of 31.6 nM.
Compound `O=C(Cn1ccc2ncc(-c3ccccc3)cc21)N1CCC1` [Example 354, 1-(Azetidin-1-yl)-2-(6-phenylpyrrolo[3,2-b]pyridin-1-yl)ethanone] has an IC50 of 31.6 nM.
Work on `O=C(Cn1ccc2ncc(-c3cc(F)cc(F)c3)cc21)N1CCC1` [Example 355, 1-(Azetidin-1-yl)-2-[6-(3,5-difluorophenyl)pyrrolo[3,2-b]pyridin-1-yl]ethanone] yielded an IC50 of 50.1 nM.
With `Cc1cccc(-c2cnc3ccn(CC(=O)N4CCC4)c3c2)c1` [Example 356, 1-(Azetidin-1-yl)-2-[6-(m-tolyl)pyrrolo[3,2-b]pyridin-1-yl]ethanone trifluoroacetate salt] the IC50 was 20 nM.
`O=C(Cn1ccc2ncc(-c3ccc(Cl)c(Cl)c3)cc21)N1CCC1` [Example 357, 1-(Azetidin-1-yl)-2-[6-(3,4-dichlorophenyl)pyrrolo[3,2-b]pyridin-1-yl]ethanone trifluoroacetate salt] showed an IC50 of 20 nM.
`O=C(Cn1ccc2ncc(-c3cccc(C(F)(F)F)c3F)cc21)N1CCC1` [Example 358, 1-(Azetidin-1-yl)-2-[6-[2-fluoro-3-(trifluoromethyl)phenyl]pyrrolo[3,2-b]pyridin-1-yl]ethanone trifluoroacetate salt] showed an IC50 of 39.8 nM.
